Laboratory results as given in ChEMBL document CHEMBL3991601, “The target landscape of clinical kinase drugs” (Science, 2017).
Calls of active or inactive are those of the source. Rule as the data show it, for most assays here: actives have a measured Kd and inactives only a lower limit.

Experiments:
[1] = target: Mitogen-activated protein kinase 14 (Homo sapiens, UniProt Q16539)
[2] = target: Mitogen-activated protein kinase 11 (Homo sapiens, UniProt Q15759)
[3] = target: T1, Glycogen phosphorylase, liver form (Homo sapiens, UniProt P06737); format: subcellular, K-562, COLO 205, SK-N-BE(2) and MV-4-11, Cell lysate; conditions: read-out: Kd apparent
T1 sequence (P06737 whole entry): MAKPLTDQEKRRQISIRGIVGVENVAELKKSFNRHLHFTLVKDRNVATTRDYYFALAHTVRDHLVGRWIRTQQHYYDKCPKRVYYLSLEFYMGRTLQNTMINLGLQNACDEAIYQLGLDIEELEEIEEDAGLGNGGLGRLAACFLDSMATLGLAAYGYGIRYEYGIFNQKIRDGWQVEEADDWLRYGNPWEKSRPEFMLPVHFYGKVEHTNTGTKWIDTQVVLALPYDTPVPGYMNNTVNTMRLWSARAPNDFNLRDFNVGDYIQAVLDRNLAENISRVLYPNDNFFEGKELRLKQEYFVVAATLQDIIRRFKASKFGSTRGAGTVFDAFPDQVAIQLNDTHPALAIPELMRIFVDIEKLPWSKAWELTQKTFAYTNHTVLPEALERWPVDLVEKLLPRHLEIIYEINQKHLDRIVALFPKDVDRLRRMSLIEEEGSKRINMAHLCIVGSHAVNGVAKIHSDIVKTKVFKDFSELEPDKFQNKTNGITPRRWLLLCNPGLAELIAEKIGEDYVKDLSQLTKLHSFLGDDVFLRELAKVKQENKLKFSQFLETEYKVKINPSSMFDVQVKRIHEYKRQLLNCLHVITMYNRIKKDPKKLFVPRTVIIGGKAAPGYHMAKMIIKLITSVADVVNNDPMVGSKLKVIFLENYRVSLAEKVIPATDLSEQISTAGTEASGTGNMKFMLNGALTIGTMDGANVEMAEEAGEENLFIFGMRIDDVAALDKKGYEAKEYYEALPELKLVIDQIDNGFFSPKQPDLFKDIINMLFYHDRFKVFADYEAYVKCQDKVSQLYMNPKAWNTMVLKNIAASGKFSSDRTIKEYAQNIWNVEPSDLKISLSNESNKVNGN

[4] = target: T2, Serine/threonine-protein kinase LATS1 (Homo sapiens, UniProt O95835)
T2 sequence (O95835 whole entry): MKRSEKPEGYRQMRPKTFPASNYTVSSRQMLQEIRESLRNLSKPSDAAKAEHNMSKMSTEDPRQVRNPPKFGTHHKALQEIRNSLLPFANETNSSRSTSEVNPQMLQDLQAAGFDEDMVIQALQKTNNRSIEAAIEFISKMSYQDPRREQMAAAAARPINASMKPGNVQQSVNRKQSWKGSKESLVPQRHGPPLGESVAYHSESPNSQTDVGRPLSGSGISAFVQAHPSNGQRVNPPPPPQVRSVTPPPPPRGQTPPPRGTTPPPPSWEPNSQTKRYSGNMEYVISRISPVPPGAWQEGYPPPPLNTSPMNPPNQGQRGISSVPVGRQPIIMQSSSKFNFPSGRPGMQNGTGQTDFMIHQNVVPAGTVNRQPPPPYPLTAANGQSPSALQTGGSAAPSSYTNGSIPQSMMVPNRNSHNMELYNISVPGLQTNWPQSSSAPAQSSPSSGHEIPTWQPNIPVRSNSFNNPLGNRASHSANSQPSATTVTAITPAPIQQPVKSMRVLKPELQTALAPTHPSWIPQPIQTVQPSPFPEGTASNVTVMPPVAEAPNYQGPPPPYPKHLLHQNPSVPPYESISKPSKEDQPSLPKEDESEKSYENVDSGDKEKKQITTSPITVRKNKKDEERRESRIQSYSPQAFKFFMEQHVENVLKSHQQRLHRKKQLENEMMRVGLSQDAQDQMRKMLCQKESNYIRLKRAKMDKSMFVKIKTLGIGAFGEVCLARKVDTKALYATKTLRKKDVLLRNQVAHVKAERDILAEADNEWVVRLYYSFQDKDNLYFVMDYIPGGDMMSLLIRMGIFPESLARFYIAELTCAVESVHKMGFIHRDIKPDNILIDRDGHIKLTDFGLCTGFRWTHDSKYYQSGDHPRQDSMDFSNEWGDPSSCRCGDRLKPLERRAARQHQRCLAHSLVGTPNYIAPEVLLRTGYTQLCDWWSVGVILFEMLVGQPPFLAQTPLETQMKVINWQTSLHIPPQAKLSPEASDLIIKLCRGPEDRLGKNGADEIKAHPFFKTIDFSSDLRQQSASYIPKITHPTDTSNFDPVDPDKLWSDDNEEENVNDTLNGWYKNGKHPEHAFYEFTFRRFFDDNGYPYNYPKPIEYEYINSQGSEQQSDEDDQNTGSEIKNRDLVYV

[5] = target: Protein kinase C beta type (Homo sapiens, UniProt P05771)
Wee1-like protein kinase = Wee1-like protein kinase (Homo sapiens, UniProt P30291)
[6] = target: T3, Interleukin-1 receptor-associated kinase 4 (Homo sapiens, UniProt Q9NWZ3)
T3 sequence (Q9NWZ3 whole entry): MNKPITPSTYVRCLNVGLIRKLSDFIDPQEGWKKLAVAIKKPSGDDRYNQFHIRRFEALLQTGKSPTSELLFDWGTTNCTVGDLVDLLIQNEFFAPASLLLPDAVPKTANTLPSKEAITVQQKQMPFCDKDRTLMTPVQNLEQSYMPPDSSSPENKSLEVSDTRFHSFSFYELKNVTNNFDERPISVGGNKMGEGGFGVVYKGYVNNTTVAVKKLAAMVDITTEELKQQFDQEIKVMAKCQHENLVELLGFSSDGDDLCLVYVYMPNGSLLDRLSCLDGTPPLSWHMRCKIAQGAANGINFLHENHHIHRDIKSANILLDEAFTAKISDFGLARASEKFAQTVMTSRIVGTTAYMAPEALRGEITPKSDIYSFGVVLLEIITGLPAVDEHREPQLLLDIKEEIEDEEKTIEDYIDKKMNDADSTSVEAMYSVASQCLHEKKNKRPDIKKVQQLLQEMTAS

[7] = target: MAP kinase-activated protein kinase 2 (Homo sapiens, UniProt P49137)

Measured: Kd
Also: in the data inactive means no Kd found up to 30 µM.

Mitogen-activated protein kinase 14, sequence (Q16539 whole entry): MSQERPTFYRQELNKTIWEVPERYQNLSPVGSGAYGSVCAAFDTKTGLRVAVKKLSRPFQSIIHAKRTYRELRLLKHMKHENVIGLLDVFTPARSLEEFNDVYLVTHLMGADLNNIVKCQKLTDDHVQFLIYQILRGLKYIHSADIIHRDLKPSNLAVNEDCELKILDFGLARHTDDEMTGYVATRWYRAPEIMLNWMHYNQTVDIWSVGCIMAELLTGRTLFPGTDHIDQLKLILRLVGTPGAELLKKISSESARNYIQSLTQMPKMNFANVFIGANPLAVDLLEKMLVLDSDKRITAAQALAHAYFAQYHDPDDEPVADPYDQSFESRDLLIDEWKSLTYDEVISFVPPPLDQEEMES
MAP kinase-activated protein kinase 2, sequence (P49137 whole entry): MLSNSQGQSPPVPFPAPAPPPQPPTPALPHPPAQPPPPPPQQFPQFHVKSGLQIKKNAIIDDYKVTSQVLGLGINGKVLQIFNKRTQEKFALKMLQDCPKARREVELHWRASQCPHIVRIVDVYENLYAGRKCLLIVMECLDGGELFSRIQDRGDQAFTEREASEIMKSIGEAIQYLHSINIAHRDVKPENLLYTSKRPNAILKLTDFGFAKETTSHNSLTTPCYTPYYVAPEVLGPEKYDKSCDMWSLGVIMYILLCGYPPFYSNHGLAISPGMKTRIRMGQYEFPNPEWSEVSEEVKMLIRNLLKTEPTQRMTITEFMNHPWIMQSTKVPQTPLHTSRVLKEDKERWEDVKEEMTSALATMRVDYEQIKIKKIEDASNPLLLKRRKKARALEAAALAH
Mitogen-activated protein kinase 11, sequence (Q15759 whole entry): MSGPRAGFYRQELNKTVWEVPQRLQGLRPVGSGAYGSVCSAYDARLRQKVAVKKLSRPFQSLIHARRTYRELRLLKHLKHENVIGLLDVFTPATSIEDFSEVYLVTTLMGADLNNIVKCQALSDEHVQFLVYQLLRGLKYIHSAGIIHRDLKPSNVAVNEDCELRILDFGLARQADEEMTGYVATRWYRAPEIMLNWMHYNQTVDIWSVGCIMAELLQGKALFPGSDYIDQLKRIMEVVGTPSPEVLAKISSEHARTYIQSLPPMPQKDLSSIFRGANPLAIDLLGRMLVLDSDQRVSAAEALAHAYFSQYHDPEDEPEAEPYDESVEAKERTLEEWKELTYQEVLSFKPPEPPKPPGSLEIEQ
Wee1-like protein kinase, sequence (P30291 whole entry): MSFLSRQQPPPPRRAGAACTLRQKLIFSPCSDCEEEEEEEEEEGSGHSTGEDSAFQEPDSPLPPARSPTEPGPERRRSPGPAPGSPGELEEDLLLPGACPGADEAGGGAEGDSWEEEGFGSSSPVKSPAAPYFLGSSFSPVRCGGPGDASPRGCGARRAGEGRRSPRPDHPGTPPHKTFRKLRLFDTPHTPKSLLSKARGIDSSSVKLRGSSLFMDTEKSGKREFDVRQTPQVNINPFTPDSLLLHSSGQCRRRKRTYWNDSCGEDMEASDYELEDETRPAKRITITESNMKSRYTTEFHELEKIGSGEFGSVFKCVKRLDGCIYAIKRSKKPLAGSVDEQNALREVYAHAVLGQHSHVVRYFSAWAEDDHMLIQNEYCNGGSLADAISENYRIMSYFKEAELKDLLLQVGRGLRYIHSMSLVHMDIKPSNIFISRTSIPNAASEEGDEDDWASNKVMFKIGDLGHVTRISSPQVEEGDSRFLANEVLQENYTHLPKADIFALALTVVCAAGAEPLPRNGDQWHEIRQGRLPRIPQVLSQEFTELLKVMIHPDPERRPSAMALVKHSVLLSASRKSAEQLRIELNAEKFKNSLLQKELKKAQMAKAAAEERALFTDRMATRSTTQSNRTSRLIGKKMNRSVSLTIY
Protein kinase C beta type, sequence (P05771 whole entry): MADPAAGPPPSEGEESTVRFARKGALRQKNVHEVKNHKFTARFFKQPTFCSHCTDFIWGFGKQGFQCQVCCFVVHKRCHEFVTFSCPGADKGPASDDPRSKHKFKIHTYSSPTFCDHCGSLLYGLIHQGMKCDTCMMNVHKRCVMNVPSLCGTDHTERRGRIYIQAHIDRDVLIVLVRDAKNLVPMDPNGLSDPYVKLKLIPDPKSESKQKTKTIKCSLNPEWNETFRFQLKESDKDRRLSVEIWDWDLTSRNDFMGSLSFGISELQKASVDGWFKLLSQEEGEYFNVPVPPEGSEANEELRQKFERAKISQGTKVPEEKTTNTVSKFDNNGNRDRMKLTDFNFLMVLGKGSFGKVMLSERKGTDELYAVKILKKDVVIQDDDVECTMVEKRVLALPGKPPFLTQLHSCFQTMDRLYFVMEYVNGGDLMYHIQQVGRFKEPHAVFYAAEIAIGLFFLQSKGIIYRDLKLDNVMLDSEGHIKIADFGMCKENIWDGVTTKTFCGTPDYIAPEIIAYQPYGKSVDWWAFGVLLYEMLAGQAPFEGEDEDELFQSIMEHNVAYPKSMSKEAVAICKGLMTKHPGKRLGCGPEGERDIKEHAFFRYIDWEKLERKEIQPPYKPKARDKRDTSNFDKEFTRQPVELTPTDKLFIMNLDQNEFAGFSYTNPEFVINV

CC(=O)c1cnc2ccc(-c3cc(Cl)c(O)c(Cl)c3)nc2c1N[C@H]1CC[C@H](CN(C)C)CC1
inactive: [1] > 30 µM | [2] > 30 µM | [3] > 30 µM | Wee1-like protein kinase > 30 µM
active: [4] 0.014 µM | [5] 0.233 µM

CCNC(=O)C#Cc1ccc2c(c1)NC(=O)/C2=C(\Nc1ccc(CN(C)C)cc1)c1ccccc1
active: [4] 0.635 µM
inactive: [6] > 30 µM | [1] > 30 µM | [2] > 30 µM | [3] > 30 µM | [5] > 30 µM | [7] > 30 µM | Wee1-like protein kinase > 30 µM

COCc1c(-c2ccc(NC(=O)Nc3cc(C(F)(F)F)ccc3F)c(F)c2)c2c(N)ncnn2c1CN1CCOCC1
inactive: [6] > 30 µM | [1] > 30 µM | [2] > 30 µM | [3] > 30 µM | [4] > 30 µM | [5] > 30 µM | [7] > 30 µM | Wee1-like protein kinase > 30 µM

COc1cc(Nc2ncc3c(n2)-c2ccc(Cl)cc2C(c2c(F)cccc2OC)=NC3)ccc1C(=O)O [ALISERTIB]
inactive: [2] > 30 µM | [3] > 30 µM | [4] > 30 µM | [5] > 30 µM | Wee1-like protein kinase > 30 µM

Cc1nc(NC(=O)N2CCC[C@H]2C(N)=O)sc1-c1ccnc(C(C)(C)C(F)(F)F)c1 [ALPELISIB]
inactive: [6] > 30 µM | [1] > 30 µM | [3] > 30 µM | [4] > 30 µM | [5] > 30 µM | [7] > 30 µM | Wee1-like protein kinase > 30 µM

CNC(=O)c1ccccc1Sc1ccc2c(/C=C/c3ccccn3)n[nH]c2c1 [AXITINIB]
inactive: [3] > 30 µM | [5] > 30 µM

NC(=O)Nc1cc(-c2cccc(F)c2)sc1C(=O)N[C@H]1CCCNC1 [AZD-7762]
inactive: [1] > 30 µM | [2] > 30 µM | [3] > 30 µM | [4] > 30 µM | [5] > 30 µM | [7] > 30 µM | Wee1-like protein kinase > 30 µM

Cc1cc(C(=O)NOCCO)c(Nc2ccc(I)cc2F)n(C)c1=O [AZD-8330]
inactive: [6] > 30 µM | [1] > 30 µM | [3] > 30 µM | [4] > 30 µM | [5] > 30 µM | [7] > 30 µM | Wee1-like protein kinase > 30 µM

CC(C)(C)c1nc(-c2cccc(NS(=O)(=O)c3c(F)cccc3F)c2F)c(-c2ccnc(N)n2)s1 [DABRAFENIB]
inactive: [6] > 30 µM | [2] > 30 µM | [3] > 30 µM | [4] > 30 µM | [5] > 30 µM | Wee1-like protein kinase > 30 µM

Cn1cc(C2=C(c3cn(C4CCN(Cc5ccccn5)CC4)c4ccccc34)C(=O)NC2=O)c2ccccc21 [ENZASTAURIN]
inactive: [3] > 30 µM

C[C@@H](Oc1cc(-n2cnc3ccc(CN4CCN(C)CC4)cc32)sc1C(N)=O)c1ccccc1C(F)(F)F [GSK-461364]
inactive: [3] > 30 µM | [5] > 30 µM

CCn1cc(-c2ccnc3[nH]c(-c4cccc(CN(C)C)c4)cc23)c(-c2ccc(NC(=O)N(C)C)cc2)n1 [GSK-1070916]
inactive: [6] > 30 µM | [2] > 30 µM | [3] > 30 µM | [4] > 30 µM | [5] > 30 µM | Wee1-like protein kinase > 30 µM
active: [1] 8.5 µM

O=C(Nc1cc(C(F)(F)F)cc(C(F)(F)F)c1)c1cc(Cl)ccc1O [IMD-0354]
inactive: [1] > 30 µM | [2] > 30 µM | [3] > 30 µM | [4] > 30 µM | [5] > 30 µM | [7] > 30 µM | Wee1-like protein kinase > 30 µM

Cc1[nH]c(/C=C2\C(=O)Nc3ccccc32)c(C)c1CCC(=O)O [ORANTINIB]
inactive: [1] > 30 µM | [2] > 30 µM | [3] > 30 µM | [5] > 30 µM | Wee1-like protein kinase > 30 µM

NC(=O)c1c(OCc2c(F)cc(Br)cc2F)nsc1NC(=O)NCCCCN1CCCC1 [OSI-632]
inactive: [2] > 30 µM | [3] > 30 µM | [4] > 30 µM | [5] > 30 µM | Wee1-like protein kinase > 30 µM

CCOc1cc2ncc(C#N)c(Nc3ccc(F)c(Cl)c3)c2cc1NC(=O)/C=C/CN(C)C [PELITINIB]
inactive: [6] > 30 µM | [1] > 30 µM | [2] > 30 µM | [3] > 30 µM | [4] > 30 µM | [5] > 30 µM | [7] > 30 µM

CCCCCCCCCCCCCCCCCCOP(=O)([O-])OC1CC[N+](C)(C)CC1 [PERIFOSINE]
inactive: [6] > 30 µM | [2] > 30 µM | [3] > 30 µM | [4] > 30 µM | [5] > 30 µM | [7] > 30 µM | Wee1-like protein kinase > 30 µM

CC(=O)NCC(=O)N1[C@@H]2CC[C@H]1c1ccc(Nc3ncc(C(F)(F)F)c(NC4CCC4)n3)cc12 [PF-03814735]
inactive: [2] > 30 µM | [3] > 30 µM | [5] > 30 µM
active: [4] 0.406 µM | Wee1-like protein kinase 1.59 µM

O=C(NOCCO)c1cc(CN2OCCCC2=O)c(F)c(F)c1Nc1ccc(I)cc1F [RO-4987655]
inactive: [3] > 30 µM | [5] > 30 µM

N#CC[C@H](C1CCCC1)n1cc(-c2ncnc3[nH]ccc23)cn1 [RUXOLITINIB]
inactive: [3] > 30 µM | [5] > 30 µM

Cn1ncc(Cl)c1-c1cc(C(=O)N[C@H](CN)Cc2ccc(F)c(F)c2)oc1Cl [UPROSERTIB]
inactive: [6] > 30 µM | [1] > 30 µM | [2] > 30 µM | [3] > 30 µM | [7] > 30 µM | Wee1-like protein kinase > 30 µM
3.59 µM: [4]

C[C@@H](N)c1ccc(C(=O)Nc2ccnc3[nH]ccc23)cc1 [Y-39983]
active: [5] 6.03 µM
inactive: [6] > 30 µM | [2] > 30 µM | [3] > 30 µM | [4] > 30 µM | [7] > 30 µM | Wee1-like protein kinase > 30 µM
